According to patent US7943631B2, “Method of treating drug addiction using dextro-morphine” (MCW Research Foundation, Inc., priority 2007, dated 2011):
Like-named read-outs stand apart in the source and are kept apart here.

Columns and labels:
[1] = tested on: mice; assay: Tail-flick response after intrathecal injection, mouse spinal cord; details: for (−)-morphine-produced tail-flick inhibition after pretreatment given alone (did not affect): 10 μg intrathecal alone, 45 min before (−)-morphine 1 μg, measured 15 min after; for reversal of the (+)-morphine-induced attenuation of (−)-morphine-produced tail-flick inhibition: intrathecal with (+)-morphine 10 pg, BD1047 1-10 μg, (+)-pentazocine 0.1-10 μg, in a dose-dependent manner
[2] = cited from earlier work; for block or reversal of the (+)-morphine-induced attenuation of systemic (−)-morphine-produced antinociception: pretreatment
[3] = tested on: rats; assay: Conditioned place preference, (−)-morphine and (+)-morphine microinjected into the Acb shell; type: in vivo, rat
[4] = cited from earlier work; for production of conditioned place preference or aversion: 4 mg/kg s.c., given systemically, Mucha and Herz 1986; for block of the CPP produced by (−)-morphine: Olmstead and Burns 2005
[5] = tested on: rats; assay: Conditioned place preference (CPP), drugs given systemically; type: in vivo, rat; details: for effect given alone on baseline place conditioning (CPP or conditioned place aversion): 3 μg/kg i.p. alone, rats treated s.c. with saline vehicle
[6] = tested on: rats
[7] = tested on: extracellular dopamine in the Acb shell; assay: Microdialysis of extracellular dopamine in the Acb shell after microinjection into the VTA, urethane-anesthetized rats; type: in vivo, rat
Description: Groups of rats were microinjected with endomorphin-1 (1, 3 or 10 μg) or vehicle into the VTA (A). In other groups of rats, (−)-naloxone (4 or 40 ng) or vehicle was co-microinjected into the VTA with endomorphin-1 (10 μg). The perfusates from the microdialysis probe at the nucleus accumbens shell were collected every 15 min from 30 min before microinjection and continuously collected for another 120 min (A) or 105 min (B) after microinjection. The perfusates were then analyzed their dopamine level. […] (B) For the group of rats injected with different dose of (−)-naloxone+endomorphin-1 versus vehicle+endomorphin-1, Finteraction (18, 150)=3.338, Ftreatment (2, 150)=7.671, Ftime (9, 150)=11.17, *P<0.01; only the data of the dopamine level after the 0 min time point were used for the statistic analysis; the group of rats microinjected with vehicle alone in (B) was not included in the statistic analysis.
. The perfusates were then analyzed their dopamine level. […]; only the data of the dopamine level after the 0 min time point were used for statistic analysis; the vehicle pretreatment followed by vehicle microinjected group was not included in the statistic analysis.
Groups of rats were microinjected with a various dose of endomorphin-1 (1, 3 and 10 μg) or vehicle given into the VTA and the release of dopamine from the Acb shell were studied. […] The dopamine level returned to baseline 60 min thereafter (FIG. 8A). To determine if the increased release of dopamine induced by endomorphin-1 is mediated by the stimulation of μ-opioid receptors, the effect of (−)-naloxone on the increased release of dopamine induced by endomorphin-1 was then studied.

Question: Which “(−)-morphine-produced tail-flick inhibition after pretreatment given alone (did not affect)” value [1] does the source give for CC(C)=CCN1CCC2(C)c3cc(O)ccc3CC1C2C (single isomer, unassigned; (+)) [(+)-pentazocine] here?
Answer: 8.89 ± 0.53 s

Question: What about the “reversal of the (+)-morphine-induced attenuation of (−)-morphine-produced tail-flick inhibition” value [1] of the same compound?
Answer: reversed

Question: And the “effect against morphine, both given spinally” value ([2]; 13 μg against morphine 700 ng, mice, Mei and Pasternak 2002)?
Answer: without effect against morphine

Question: What about the “effect on (−)-morphine-produced analgesia, systemic administration” value ([2]; 5 or 10 mg/kg, Chien and Pasternak 1994) of the same compound?
Answer: antagonizes (−)-morphine-produced analgesia

Question: With CN1CC[C@]23c4c5ccc(O)c4O[C@H]2[C@@H](O)C=C[C@H]3[C@H]1C5 [(+)-morphine] as the compound, how does the “attenuation of (−)-morphine-produced conditioned place preference” value ([3]; 0.1 to 10 pg into the Acb shell, 45 min before (−)-morphine 5 μg, same site) read?
Answer: dose-dependently attenuated the (−)-morphine-produced conditioned place preference

Question: And the “production of conditioned place preference given alone” value ([3]; 3 to 100 pg into the Acb shell, alone)?
Answer: did not produce any conditioned place preference

Question: What about the “attenuation of (−)-morphine-produced conditioned place preference at higher doses” value ([3]; 30, 100 and 1000 pg into the Acb shell, 45 min before (−)-morphine 5 μg) of the same compound?
Answer: did not attenuate the (+)-morphine-produced conditioned place preference

Question: What about the “dose of maximal inhibition (U-shape dose-response curve)” value ([3]; into the Acb shell, dose range 0.1 to 1000 pg) of the same compound?
Answer: 3 pg

Question: What about the “production of conditioned place preference or aversion” value [4] of the same compound?
Answer: does not produce any conditioned place preference nor does it produce any conditioned place aversion

Question: What about the “effect given alone on baseline place conditioning (CPP or conditioned place aversion)” value [5] of the same compound?
Answer: did not affect the baseline place conditioning

Question: What about the “effect given alone on baseline place conditioning (CPP or conditioned place aversion)” value ([5]; listed as dextro-morphine) of the same compound?
Answer: did not produce CPP nor conditioned place aversion

Question: What about the “attenuation of (−)-morphine-produced CPP at higher dose” value ([5]; i.p. pretreatment 100 μg/kg, 1 h before (−)-morphine sulfate 5 mg/kg s.c.) of the same compound?
Answer: did not attenuate the (−)-morphine-produced CPP

Question: And the “attenuation of (−)-morphine-produced CPP” value ([5]; i.p. pretreatment 0.1 to 3 μg/kg, 1 h before (−)-morphine sulfate 5 mg/kg s.c.)?
Answer: dose-dependently attenuated the (−)-morphine-produced CPP

Question: What about the “dose of maximal inhibition of the morphine-produced CPP (U-shaped dose-response curve)” value ([5]; i.p., dose range 0.1 to 100 μg/kg) of the same compound?
Answer: 3 µg/kg

Question: What about the “effect on (−)-morphine-produced tail-flick inhibition” value ([1]; 10 pg intrathecal, 45 min before (−)-morphine 1 μg intrathecal) of the same compound?
Answer: attenuated the (−)-morphine-produced tail-flick inhibition

Question: And the “block of the nicotine-produced increase of conditioned place preference at single dose” value ([6]; 0.3 pg into the Acb, nicotine 20 μg)?
Answer: completely block the nicotine-produced increase of the conditioned place preference

Question: What about the “block of the nicotine-produced increase of conditioned place preference” value ([6]; pretreatment 0.03 to 3 pg into the Acb, nicotine 20 μg) of the same compound?
Answer: blocked dose-dependently

Question: What about the “block of the endomorphin-1-induced increase of extracellular dopamine” value ([7]; 3 pg into the VTA, 45 min before endomorphin-1 10 μg) of the same compound?
Answer: completely blocked the increase of the extracellular dopamine in the Acb shell

Question: And the “effect on basal levels of extracellular dopamine” value ([7]; microinjection into the VTA)?
Answer: did not affect the basal levels of extracellular dopamine in the Acb shell

Question: What about the “attenuation of antinociception produced by (−)-morphine given systemically” value ([2]; pretreated systemically, Wu et al., 2007) of the same compound?
Answer: attenuates the antinociception produced by (−)-morphine given systemically

Question: For C=CCN1CC[C@]23c4c5ccc(O)c4O[C@H]2C(=O)CC[C@]3(O)[C@H]1C5 [(+)-naloxone], which “block or reversal of the (+)-morphine-induced attenuation of systemic (−)-morphine-produced antinociception” value (“block or reversal” for short) ([2]; Wu et al., 2007) is on record?
Answer: blocked or reversed

Question: Which results are given for CN1CC[C@]23c4c5ccc(O)c4O[C@H]2[C@@H](O)C=C[C@H]3[C@H]1C5.O=S(=O)(O)O [(−)-morphine sulfate, (−)-Morphine sulfate]?
Answer: production of conditioned place preference at higher dose ([3]; 10 μg into the Acb shell): produced no further increase of conditioned place preference; production of conditioned place preference ([3]; 2.5 or 5 μg into the Acb shell): dose-dependently produced conditioned place preference; production of conditioned place preference or aversion [4]: produces marked conditioned place preference; production of CPP at higher dose ([5]; rats, s.c., 10 mg/kg): produced no more increase of the CPP; production of CPP ([5]; rats, s.c., 1 and 5 mg/kg): dose-dependently produced CPP

Question: Which “effect given alone on the morphine-produced CPP” value ([5]; 3 mg/kg i.p. alone, morphine sulfate 5 mg/kg s.c.) does the source give for Br.Br.CN(C)CCN(C)CCc1ccc(Cl)c(Cl)c1 [BD1047, N-[2-(3,4-Dichlorophenyl)ethyl]-N-methyl-2-(dimethylamino)ethylamine dihydrobromide] here?
Answer: did not affect the morphine-produced CPP

Question: And the “effect given alone on baseline place preference” value ([5]; 3 mg/kg i.p. alone, rats treated with saline vehicle)?
Answer: nor did it affect the baseline place preference

Question: And the “reversal of the attenuation of (−)-morphine-produced CPP induced by (+)-morphine” value ([5]; 1, 3 or 6 mg/kg i.p. with (+)-morphine 3 μg/kg, 1 h before morphine sulfate 5 mg/kg s.c.)?
Answer: dose-dependently reversed the attenuation of the morphine-produced CPP

Question: What about the “(−)-morphine-produced tail-flick inhibition after pretreatment given alone (did not affect)” value [1] of the same compound?
Answer: 9.19 ± 0.42 s

Question: And the “reversal of the (+)-morphine-induced attenuation of (−)-morphine-produced tail-flick inhibition” value [1]?
Answer: reversed

Question: What about the “block or reversal” value ([2]; Wu et al., 2007) of the same compound?
Answer: blocked or reversed

Question: Which “block of the CPP produced by (−)-morphine” value [4] does the source give for C=CCN1CC[C@]23c4c5ccc(O)c4O[C@H]2/C(=N/N=C2\CC[C@@]4(O)[C@H]6Cc7ccc(O)c8c7[C@@]4(CCN6CC=C)[C@H]2O8)CC[C@@]3(O)[C@H]1C5 [naloxonazine] here?
Answer: blocked

Question: Which “block of the CPP produced by (−)-morphine” value [4] does the source give for O=C1CC[C@@]2(O)[C@H]3Cc4ccc(O)c5c4[C@@]2(CCN3CC2CC2)[C@H]1O5 [naltrexone] here?
Answer: blocked

Question: Which “production of conditioned place preference at higher dose” value ([6]; 40 μg microinjected into the Acb) does the source give for CN1CCCC1c1cccnc1 (stereo not shown) [nicotine] here?
Answer: produced less increase of the conditioned place preference than that of 20 μg of nicotine

Question: And the “production of conditioned place preference” value ([6]; 5 to 20 μg microinjected into the Acb)?
Answer: dose-dependently increased the conditioned place preference

Question: For (−)-naloxone, which “attenuation of the endomorphin-1-induced increase of extracellular dopamine” value ([7]; 40 ng co-administered into the VTA with endomorphin-1 10 μg) is on record?
Answer: attenuated the increase of the extracellular dopamine in the Acb shell

Question: And the “block or reversal” value ([2]; Wu et al., 2007)?
Answer: blocked or reversed

Question: For Endomorphin-1, which “extracellular dopamine in the Acb shell” value ([7]; 10 μg into the VTA, 15 min after injection) is on record?
Answer: caused an increase of the extracellular dopamine in the Acb shell

Question: And the “time for the dopamine level to return to baseline” value ([7]; 10 μg into the VTA, thereafter)?
Answer: 60 min
